# Reference: patent US9539298B2, “Lissencephaly therapeutic agent” (OSAKA CITY UNIVERSITY, priority 2010, dated 2017)
# Columns and labels:
# [1] = test system: LIS1 heterozygous mice (lissencephaly model mice); assay: Behavior analysis: rotor rod test; assay type: in vivo, mouse; conditions: M2 and M3 groups, 200 μg/g per day oral
# Procedure: To conduct a behavior analysis experiment, wild-type mice and Lis1 (^+/−) heterozygous mice were divided into five groups (C group, M1 group, M2 group, M3 group, and M4 group). The details regarding the mice in each group are described below. CE-2 (CLEA Japan, Inc.) was used as mice feed. The wild-type mice and heterozygous mice used for this experiment were prepared in the same method as described in the above section “Preparation of LIS1 gene hetero-deficient mice (LIS1 heterozygous mice).”
# M2 group: LIS1 heterozygous mice prepared as follows. SNJ-1945 was dissolved in dimethyl sulfoxide (Sigma, D-5879) at a concentration of 100 mg/ml, and administered to pregnant mice from Day 9.5 of the embryonic period (E9.5) in an amount of 200 μg per gram of maternal body weight per day. The administration was performed by adding SNJ-1945 to mice feed. […]
# By adding SNJ-1945 to the mice feed (CE-2, CLEA Japan, Inc.), SNJ-1945 was continuously administered to the mice so that the administration amount became 200 μg per gram of body weight per day through oral administration. For a behavior analysis experiment, 12 to 16 mice were grouped to be subjected to preliminary breeding in the behavior experiment facility for 1 to 2 weeks; thereafter, the behavior of the mice was analyzed at an age of about 9 to 12 weeks. After the behavior analysis experiment, a gene type was determined for all mice. […]
# [2] = test system: nerve cells from cerebellums of FVB mice; assay: Analysis of toxicity of calpain inhibitors on cultured cerebellar nerve cells; assay type: cell-based, mouse
# Procedure: The cerebellums were removed from 4- to 5-day-old FVB mice (15 mice). In a Ca^2+-free Hank's Balanced Salt Solution (CF-HBSS; Ca^2+, Mg^2+-free Hank's Balanced Salt Solution (CMF-HBBS, Sigma) containing 5 mM magnesium chloride (MgCl2, Wako) and 4 mg/mL glucose (Wako)), the meninges were removed and cut into pieces. After the cerebellum fragments were washed with CF-HBSS, the fragments were allowed to stand for 20 minutes at 37° C. in CF-HBSS containing 0.025% trypsin (Invitrogen) and 6.25 μg/mL deoxyribonuclease (DNase, Sigma), and then centrifuged. The resulting tissues were washed with 10% HS/BME (DNase Medium; obtained by adding 5 mM MgCl2 and 25 μg/mL DNase to Basal Medium Eagle (BME, Invitrogen) containing 10% Horse Serum (HS, Invitrogen)) and centrifuged. DNase medium was added to the cells, and the cells were transferred to a 24-well plate (Nunc). The cells were kept still for 30 minutes at 37′C under an atmospheric environment of 5% CO2, thereby suspending the cells. The cell suspension was isolated, and then washed with 10% HS/BME. The suspension was transferred again to a 24-well plate to be cultured for 16 hours at 37° C. under an atmospheric environment of 5% CO2. The cells were collected to BME containing 1% Bovine Serum Albumin (BSA, Sigma) and 0.5% N2 supplement (Invitrogen), and the cell suspension was seeded on a 35 mm glass base dish (Iwaki) coated beforehand with poly-L-lysine (Sigma) and laminin (Sigma) in an amount of […]. The cells were cultured for 8 hours at 37° C. under an atmospheric environment of 5% CO2. The cultured nerve cells were used as test nerve cells.
# A culture solution (10% HS/BME) containing SNJ-1945, E64d, or ALLN was prepared in the following manner. SNJ-1945 dissolved in dimethyl sulfoxide (Sigma, D-5879) was mixed with a culture solution so that the final concentration became 200 μM, and was kept still for an hour at 37° C., thereby completely dissolving SNJ-1945 in the culture medium. ALLN and E64d were also dissolved in culture media in the same manner, except that ALLN and E64d were added to the culture media to final concentrations of 50 μM and 100 μM, respectively. The culture media in which the components were dissolved were added to the test nerve cells prepared above in an amount of 2 ml/well, and the cells were cultured for 16 hours. As a control, the same culture was conducted using a culture medium containing the same amount of dimethyl sulfoxide (Sigma, D-5879). After culture, the cells were observed using an inverted microscope (TCS FP5S, Leica). A 20× objective lens was used. Images were taken using dedicated software (LAS AF, Leica) under the condition of 512×512 pixels.
compound,measurement,setting,value
"COCCOCCOC(=O)N[C@@H](CC(C)C)C(=O)N[C@@H](Cc1ccccc1)C(=O)C(=O)NC1CC1 [compound 17, ((1S)-1-((((1S)-1-Benzyl-2,3-dioxo-3-(cyclopropylamino)propyl)amino)carbonyl)-3-methylbutyl)carbamic acid 5-methoxy-3-oxapentyl ester]",motor ability development curve (time on the rod over repeated tests),[1]; FIG. 10,positioned between M1 group and C group
same,total time spent on the rod,[1]; FIG. 11,increased to the extent that there was almost no significant difference from C group
same,neurite elongation and cell migration (cytotoxicity),"[2]; 200 μM, 16 hours, FIG. 24","normal neurite elongation and cell migration were also observed, and no significant difference from the control was observed"
same,cell toxicity,[2]; compared with other calpain inhibitors,did not show any cell toxicity even in a high concentration
